Measured values published in patent publication US20220241409A1, “WATER SOLUBLE ADJUVANT AND COMPOSITION CONTAINING SAME” (Sumitomo Dainippon Pharma Co., Ltd., priority 2019, published 2022).

Test system: Antigen-Specific CTL
Assay: Immune response of antigen-specific CTL for peptide and tumor cell, vaccine b (Test 12)
Format: in vivo, mouse
Method: Vaccine b prepared like Test 8 was injected to a HLA-A*02:01 transgenic mouse intradermally at the tail base area in an amount for administering 300 μg of Compound of formula 4 per body and 225 μg of Peptide SEQ ID No. 3 per body. Or, in the step of preparing vaccine b, the compound prepared in Example 2 was added to the diluted peptide solution to prepare a vaccine, and the prepared vaccine was injected to a HLA-A*02:01 transgenic mouse intradermally at the tail base area in an amount for administering 300 μg of Compound of formula 4 per body, 225 μg of Peptide SEQ ID No. 3 per body, and 325 ng of the compound prepared in Example 2 per body. One week later, the mice were sacrificed with CO2 gas, and then spleens removed from the mice. A splenocyte suspension was prepared from the spleens with CTM. Like Test 6, Peptide (SEQ ID No. 1) was added to the splenocyte-containing ELISPOT plate, and the plate was incubated overnight at 37° C. under an atmosphere of 5% CO2 to re-stimulate the peptide in vitro. Then, after removal of the supernatant from the wells, stained spots on the ELISPOT plate were counted. […] The concentration of mouse IFN-γ in the culture supernatant was measured with an ELISA kit.

CCCCOc1nc(N)c2[nH]c(=O)n(Cc3ccc(CN(C)CCOCCOCCOCCOCCO)nc3)c2n1 [Example 2, 6-amino-2-butoxy-9-{[6-(16-hydroxy-2-methyl-5,8,11,14-tetraoxa-2-azahexadecan-1-yl)pyridin-3-yl]methyl}-7,9-dihydro-8H-purin-8-one-trifluoroacetate]
CTLs specific to Peptide (SEQ ID No. 1) in splenocyte, relative to vaccine b without compound (IFN-γ ELISPOT, 325 ng per body in vaccine b, one week later): 1.8 times
amount of IFN-γ produced from the CTL, relative to vaccine b without compound (about three days culture with LLC-HHD-WT1 tumor cells and Peptide SEQ ID No. 1, ELISA, average of 3 wells): 8.7 times
